Data published in paper PMC8819907 (Journal of Experimental & Clinical Cancer Research : CR, 2022).
Values joined by “and” are separate entries in the source; they are usually repeats but may differ in a detail not shown here. Equal values may be shown once. “Also recorded” adds a separate entry of the source. Read-outs that look alike come from different tables or passages of the source.

Tests used:
[1] = system: advanced cancer patients with varying degrees of hepatic dysfunction
[2] = system: advanced cancer patients with varying degrees of hepatic dysfunction; settings: human, in vivo
[3] = dose normalized to 2 mg
[4] = trametinib and its metabolites; cited from earlier work
[5] = cited from earlier work
MEK2 = system: MEK2; design: method as in ref 17 (a number printed in a supplementary file, which may have a reference list of its own: not looked up in the article's list); settings: read-out: IC50 against MEK2; cited from earlier work
[6] = system: panel of 183 kinases, including MEK5, CRAF, BRAF, ERK1, and ERK2; design: method as in ref 18 (a number printed in a supplementary file, which may have a reference list of its own: not looked up in the article's list); settings: cited from earlier work
HCT-116 xenograft = system: HCT-116 xenograft; design: method as in ref 17 (a number printed in a supplementary file, which may have a reference list of its own: not looked up in the article's list); settings: cited from earlier work
A549 xenograft = system: A549 xenograft; design: method as in ref 17 (a number printed in a supplementary file, which may have a reference list of its own: not looked up in the article's list); settings: cited from earlier work
pERK = system: pERK; design: method as in ref 17 (a number printed in a supplementary file, which may have a reference list of its own: not looked up in the article's list); settings: cited from earlier work
[7] = system: patients with solid tumors or lymphoma; design: method as in ref 20 (a number printed in a supplementary file, which may have a reference list of its own: not looked up in the article's list); settings: cited from earlier work
[8] = cited from earlier work; remark: listed apart in the source
CYP enzymes = settings: cited from earlier work
KRAS-mutant NSCLC = system: KRAS-mutant NSCLC; design: method as in ref 24 (a number printed in a supplementary file, which may have a reference list of its own: not looked up in the article's list); settings: cited from earlier work
[9] = cited from earlier work; remark: listed apart in the source
[10] = cited from earlier work; remark: listed apart in the source
[11] = system: CYP enzymes; BCRP, MRP2, OATP1B1, OATP1B3, OATP2B1, OCT1, MATE1, P-gp, BSEP; settings: cited from earlier work
[12] = system: MRP2, BSEP, P-gp, BCRP, OATP1B1, OATP1B3, OAT1, OAT3, OCT2, MATE1; settings: cited from earlier work
clinical = settings: human, 2 mg

CC(=O)Nc1cccc(-n2c(=O)n(C3CC3)c(=O)c3c(Nc4ccc(I)cc4F)n(C)c(=O)c(C)c32)c1 [Trametinib, equimolecular combination of acetamide, N-[3-[3-cyclopropyl-5-[(2-fluoro-4-iodophenyl)amino]-3,4,6,7-tetrahydro6,8-dimethyl-2,4,7-trioxopyrido[4,3-d]pyrimidin-1(2H)-yl]phenyl] with 1,1’-sulfinylbis[methane]]
Death related to TRAEs ([1]; Mild 2 mg): 0 (0%)
Death related to TRAEs ([1]; Mod DL1 1.5 mg): 0 (0%)
Death related to TRAEs ([1]; Mod DL+1 2 mg): 0 (0%)
Death related to TRAEs ([1]; Norm 2 mg): 0 (0%)
Death related to TRAEs ([1]; Sev DL1 1 mg): 0 (0%)
Death related to TRAEs ([1]; Sev DL+1 1.5 mg): 0 (0%)
Death related to TRAEs ([1]; Total Patients): 0 (0%)
Death related to TRAEs ([1]; Total Patients, listed as trametinib): No treatment related deaths
Alanine aminotransferase increased ([1]; human, in vivo): 9 (20%)
Anemia ([1]; human, in vivo): 10 (23%)
Blood alkaline phosphatase increased ([1]; human, in vivo): 9 (20%)
Grade 3 TRAEs ([1]; human, in vivo): 2 events
Hypertension ([1]; human, in vivo): 8 (18%)
Hypomagnesemia ([1]; human, in vivo): 8 (18%)
Hyponatremia ([1]; human, in vivo): 9 (20%)
Maculopapular rash ([1]; human, in vivo): 11 (23%)
Mucositis ([1]; human, in vivo): 6 (14%)
Thrombocytopenia ([1]; human, in vivo): 10 (23%)
Treatment discontinuation due to TRAEs ([1]; human, in vivo): 3 (7%)
Treatment discontinuation due to non-TRAEs ([1]; human, in vivo): 10 (23%)
Vomiting ([1]; human, in vivo): 9 (20%)
grade 3 gamma-glutamyl transferase increased ([1]; human, in vivo): 1 patient
grade 3 pneumonitis ([1]; human, in vivo): 1 patient
RP2D [2]: 2 mg QD
CLssF, Geo mean (%CV) ([3]; Mild (n = 6)): 5680.0 (45.5) mL/hr
CLssF, Mean (±SD) ([3]; Mild (n = 6)): 6200.0 (±2818.6) mL/hr
Cavg, Geo mean (%CV) ([3]; Mild (n = 6)): 14.7 (51.9) ng/mL
Cavg, Mean (±SD) ([3]; Mild (n = 6)): 16.2 (±8.4) ng/mL
Cmin, Geo mean (%CV) ([3]; Mild (n = 6)): 10.8 (57.3) ng/mL
Cmin, Mean (±SD) ([3]; Mild (n = 6)): 12.1 (±7.0) ng/mL
CLssF, Geo mean (%CV) ([3]; Mod (n = 3)): 6431.6 (8.4) mL/hr
CLssF, Mean (±SD) ([3]; Mod (n = 3)): 6446.4(±542.6) mL/hr
Cavg, Geo mean (%CV) ([3]; Mod (n = 3)): 13.0 (8.1) ng/mL
Cavg, Mean (±SD) ([3]; Mod (n = 3)): 13.0 (±1.1) ng/mL
Cmin, Geo mean (%CV) ([3]; Mod (n = 3)): 10.4 (22.4) ng/mL
Cmin, Mean (±SD) ([3]; Mod (n = 3)): 10.5 (±2.4) ng/mL
CLssF, Geo mean (%CV) ([3]; Norm (n = 10)): 4449.0 (36.0) mL/hr
CLssF, Mean (±SD) ([3]; Norm (n = 10)): 4675.0 (±1683.6) mL/hr
Cavg, Geo mean (%CV) ([3]; Norm (n = 10)): 18.7 (28.1) ng/mL
Cavg, Mean (±SD) ([3]; Norm (n = 10)): 19.5 (±5.5) ng/mL
Cmin, Geo mean (%CV) ([3]; Norm (n = 10)): 14.4 (29.8) ng/mL
Cmin, Mean (±SD) ([3]; Norm (n = 10)): 15.1 (±4.5) ng/mL
CLssF, Geo mean (%CV) ([3]; Sev (n = 3)): 8736.3 (36.5) mL/hr
CLssF, Mean (±SD) ([3]; Sev (n = 3)): 9141.3 (±3337.1) mL/hr
Cavg, Geo mean (%CV) ([3]; Sev (n = 3)): 9.5 (36.4) ng/mL
Cavg, Mean (±SD) ([3]; Sev (n = 3)): 10.0 (±3.6) ng/mL
Cmin, Geo mean (%CV) ([3]; Sev (n = 3)): 7.6 (32.3) ng/mL
Cmin, Mean (±SD) ([3]; Sev (n = 3)): 7.9 (±2.5) ng/mL
differences of PK parameters (Cmax, Cmin, Cavg, AUC0 − 24) between hepatic function groups ([3]; ANOVA): no significant differences; also recorded: not statistically different
excreted in the feces [4]: ≥ 81%
excreted in urine [4]: ≤ 19%
difference in exposure, mild hepatic impairment vs normal hepatic function ([5]; 64 ([…]) subjects with mild hepatic impairment (NCI classification)): 2%
oral clearance and exposure, mild hepatic impairment vs normal hepatic function ([5]; population PK analysis): not significantly different
specificity against a panel of 183 kinases [6]: specificity of trametinib was confirmed
TGI (HCT-116 xenograft): 83%
TGI (A549 xenograft): 75%
MTD [7]: 3 mg QD
recommended phase 2 dose (RP2D) [7]: 2 mg QD
Cmax ([8]; 2 mg QD on Day 15): 23 ng/mL
mean AUC0-24 ([8]; 2 mg QD on Day 15): 376 ng·h/mL
Between-subject variability in exposure, AUC0-24 ([8]; across all dosing regimens): 20-41%
Between-subject variability in exposure, Cmax ([8]; across all dosing regimens): 27-50%
effective t1/2 ([8]; in vivo): approximately 4.5 days
steady state reached by ([8]; in vivo): ~15 days
inhibitor of CYP 1A2, 2A6, 2B6, 2C9, 2C19, 2D6 and 3A4 (CYP enzymes): not an inhibitor
inhibitor of CYP1A2, CYP2A6, CYP2B6, CYP2D6, and CYP3A4 (CYP enzymes; in vitro studies): not an inhibitor
inhibitor of CYP 2C8 (CYP enzymes; in vitro): in vitro inhibitor
median PFS (KRAS-mutant NSCLC): 11.7 weeks
overall response rate (ORR) (KRAS-mutant NSCLC): 12%
terminal half-life ([9]; after single dose administration): 127 h
volume of distribution (Vd) ([9]; following an IV microdose): 1060 L
plasma IV clearance ([9]; human, in vivo, iv): 3.21 L/h
plasma IV clearance as share of liver blood flow ([9]; human, in vivo, iv): approximately 1%
half-life ([9]; patients with normal liver function): approximately 4 days
absolute oral bioavailability ([9]; single 2 mg tablet relative to co-administered IV microdose): 72%
decrease in AUC(0-∞) with a high-fat, high-calorie meal ([9]; single dose, vs fasted): 10%
decrease in Cmax with a high-fat, high-calorie meal ([9]; single dose, vs fasted): 70%
fecal excretion, of the radioactive dose ([10]; 2 subjects): 39.2% and 35.0%
fecal excretion, of excreted radioactivity recovered ([10]; oral dose): > 80%
urinary excretion, of excreted radioactivity recovered ([10]; oral dose): < 19%
urinary excretion, of the radioactive dose ([10]; oral dose): < 10%
permeability [11]: high permeability
substrate of CYP enzymes ([11]; in vitro): not a substrate
substrate of human BCRP, MRP2, OATP1B1, OATP1B3, OATP2B1, OCT1 or MATE1 transporters ([11]; in vitro): not a substrate
substrate for P-gp and BSEP ([11]; not expected to be clinically relevant): substrate
inhibitor of P-gp, BCRP, OATP1B1, OATP1B3, OAT1, OAT3, OCT2 and MATE1 ([12]; at systemic concentrations that are not clinically relevant): in vitro inhibitor
inhibitor of MRP2 or BSEP [12]: not an inhibitor
Cmax (clinical; in vivo): 27.6 ng/mL
AUC(0-t) (clinical; plasma, oral, AUC0 − 24, Geo mean (%CV), Mild (n = 6), dose normalized to 2 mg): 352 ng·h/mL
AUC(0-t) (clinical; plasma, oral, AUC0 − 24, Geo mean (%CV), Mod (n = 3), dose normalized to 2 mg): 311 ng·h/mL
AUC(0-t) (clinical; plasma, oral, AUC0 − 24, Geo mean (%CV), Sev (n = 3), dose normalized to 2 mg): 229 ng·h/mL
AUC(0-t) (clinical; plasma, oral, AUC0 − 24, Mean (±SD), Mild (n = 6), dose normalized to 2 mg): 388 ng·h/mL
AUC(0-t) (clinical; plasma, oral, AUC0 − 24, Mean (±SD), Mod (n = 3), dose normalized to 2 mg): 312 ng·h/mL
AUC(0-t) (clinical; plasma, oral, AUC0 − 24, Mean (±SD), Norm (n = 10), dose normalized to 2 mg): 469 ng·h/mL
AUC(0-t) (clinical; plasma, oral, AUC0 − 24, Mean (±SD), Sev (n = 3), dose normalized to 2 mg): 240 ng·h/mL
Cmax (clinical; plasma, oral, Cmax, Geo mean (%CV), Mild (n = 6), dose normalized to 2 mg): 26.2 ng/mL
Cmax (clinical; plasma, oral, Cmax, Geo mean (%CV), Mod (n = 3), dose normalized to 2 mg): 16.8 ng/mL
Cmax (clinical; plasma, oral, Cmax, Geo mean (%CV), Norm (n = 10), dose normalized to 2 mg): 26.2 ng/mL
Cmax (clinical; plasma, oral, Cmax, Geo mean (%CV), Sev (n = 3), dose normalized to 2 mg): 15.3 ng/mL
Cmax (clinical; plasma, oral, Cmax, Mean (±SD), Mild (n = 6), dose normalized to 2 mg): 29.5 ng/mL
Cmax (clinical; plasma, oral, Cmax, Mean (±SD), Mod (n = 3), dose normalized to 2 mg): 16.9 ng/mL
